Laboratory results taken from patent publication US11173151B2, “Substituted triazole derivatives and uses thereof” (BAYER AKTIENGESELLSCHAFT, priority 2017, dated 2021).

Assays:
human V1a receptor = target: T1, human V1a receptor (Homo sapiens, UniProt P37288); assay: Cellular in vitro assay for determining vasopressin receptor activity, V1a receptor cell line (CHO, aequorin luminescence); format: cell-based; settings: for IC50: CHO cell line transfected with human V1a receptor, [Arg]-vasopressin at EC50 concentration, read-out: IC50 hV1a; for ratio IC50 hV2/hV1a: selectivity ratio IC50 hV2 / IC50 hV1a
T1 construct: expressed in transfected cells; host or cells: CHO K1 (ATCC), also stably transfected with a modified aequorin
T1 sequence (P37288 whole entry): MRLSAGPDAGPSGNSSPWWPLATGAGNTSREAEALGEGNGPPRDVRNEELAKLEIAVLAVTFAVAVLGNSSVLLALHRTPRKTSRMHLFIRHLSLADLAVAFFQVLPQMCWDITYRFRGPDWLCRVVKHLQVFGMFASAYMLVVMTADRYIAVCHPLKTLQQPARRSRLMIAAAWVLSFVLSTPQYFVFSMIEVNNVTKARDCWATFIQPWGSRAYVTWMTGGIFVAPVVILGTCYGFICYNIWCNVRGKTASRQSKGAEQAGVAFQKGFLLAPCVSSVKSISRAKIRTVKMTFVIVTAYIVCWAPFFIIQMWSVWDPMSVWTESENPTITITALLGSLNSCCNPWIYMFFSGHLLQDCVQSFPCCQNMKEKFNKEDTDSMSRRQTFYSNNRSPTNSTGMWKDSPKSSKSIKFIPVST
Procedure, shortened: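 Luminescence from reconstituted aequorin, reporting intracellular calcium release, was measured immediately after adding [Arg]-vasopressin at EC50 concentration to CHO K1 cells pretreated 10 minutes with graded compound concentrations. Inhibition gave IC50 values.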

human V2 receptor = target: T2, human V2 receptor (Homo sapiens, UniProt P30518); assay: Cellular in vitro assay for determining vasopressin receptor activity, V2 receptor cell line (CHO, CRE-luciferase); format: cell-based; settings: CHO cell line transfected with human V2 receptor; [Arg8]-vasopressin at EC50 concentration; read-out: IC50 hV2
T2 construct: expressed in transfected cells; host or cells: CHO K1 (ATCC) expressing firefly luciferase under a CRE-responsive promoter
T2 sequence (P30518 whole entry): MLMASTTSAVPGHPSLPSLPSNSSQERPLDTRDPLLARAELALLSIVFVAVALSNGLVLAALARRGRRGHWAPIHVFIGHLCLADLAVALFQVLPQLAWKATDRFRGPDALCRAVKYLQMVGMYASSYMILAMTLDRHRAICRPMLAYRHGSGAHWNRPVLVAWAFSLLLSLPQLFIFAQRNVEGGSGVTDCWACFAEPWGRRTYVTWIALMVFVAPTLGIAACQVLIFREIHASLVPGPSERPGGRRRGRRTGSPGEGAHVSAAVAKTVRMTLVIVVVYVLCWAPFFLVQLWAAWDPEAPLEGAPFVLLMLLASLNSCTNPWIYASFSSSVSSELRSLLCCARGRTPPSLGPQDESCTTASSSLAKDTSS

Structure (SMILES) | IC50 (human V1a receptor) [nM] | ratio IC50 hV2/hV1a (human V1a receptor) | IC50 (human V2 receptor) [nM]
O=C(c1ncccc1-n1cnc(Cn2nc(-c3ccc(Cl)cc3)n(C[C@@H](O)C(F)(F)F)c2=O)n1)N1CCC[C@@H]1C(F)(F)F [Example 478, 5-(4-Chlorophenyl)-4-[(2R)-3,3,3-trifluoro-2-hydroxypropyl]-2-{[1-(2-{[(2R)-2-(trifluoromethyl)pyrrolidin-1-yl]carbonyl}pyridin-3-yl)-1H-1,2,4-triazol-3-yl]methyl}-2,4-dihydro-3H-1,2,4-triazol-3-one] | 290 | 26.9 | 7800
CN(CC1CC1)C(=O)c1ncccc1-n1cnc(Cn2nc(-c3ccc(Cl)cc3)n(C[C@@H](O)C(F)(F)F)c2=O)n1 [Example 482, 3-[3-({3-(4-Chlorophenyl)-5-oxo-4-[(2R)-3,3,3-trifluoro-2-hydroxypropyl]-4,5-dihydro-1H-1,2,4-triazol-1-yl}methyl)-1H-1,2,4-triazol-1-yl]-N-(cyclopropylmethyl)-N-methylpyridine-2-carboxamide] | 99 | 323.2 | 32000
CC1(NC(=O)c2ncccc2-n2cnc(Cn3nc(-c4ccc(Cl)cc4)n(C[C@@H](O)C(F)(F)F)c3=O)n2)CC1 [Example 483, 3-[3-({3-(4-Chlorophenyl)-5-oxo-4-[(2R)-3,3,3-trifluoro-2-hydroxypropyl]-4,5-dihydro-1H-1,2,4-triazol-1-yl}methyl)-1H-1,2,4-triazol-1-yl]-N-(1-methylcyclopropyl)pyridine-2-carboxamide] | 37 | 106.8 | 3950
NC(=O)[C@H]1CC(F)(F)CN1C(=O)c1ncccc1-n1cnc(Cn2nc(-c3ccc(Cl)cc3)n(C[C@@H](O)C(F)(F)F)c2=O)n1 [Example 486, 1-({3-[3-({3-(4-Chlorophenyl)-5-oxo-4-[(2R)-3,3,3-trifluoro-2-hydroxypropyl]-4,5-dihydro-1H-1,2,4-triazol-1-yl}methyl)-1H-1,2,4-triazol-1-yl]pyridin-2-yl}carbonyl)-4,4-difluoro-D-prolinamide] | 110 | 290.9 | 32000
O=C(NC1CC1)c1ccncc1-n1cnc(Cn2nc(-c3ccc(Cl)cc3)n(C[C@H](O)C(F)(F)F)c2=O)n1 [Example 488, 3-[3-({3-(4-chlorophenyl)-5-oxo-4-[(2S)-3,3,3-trifluoro-2-hydroxypropyl]-4,5-dihydro-1H-1,2,4-triazol-1-yl}methyl)-1H-1,2,4-triazol-1-yl]-N-cyclopropylpyridine-4-carboxamide] | 29 | 69.0 | 2000
O=C(NCC(F)(F)F)c1ccncc1-n1cnc(Cn2nc(-c3ccc(Cl)cc3)n(C[C@H](O)C(F)(F)F)c2=O)n1 [Example 489, 3-[3-({3-(4-chlorophenyl)-5-oxo-4-[(2S)-3,3,3-trifluoro-2-hydroxypropyl]-4,5-dihydro-1H-1,2,4-triazol-1-yl}methyl)-1H-1,2,4-triazol-1-yl]-N-(2,2,2-trifluoroethyl)pyridine-4-carboxamide] | 50 | 34.0 | 1700
O=C(N[C@@H]1C[C@@H]1F)c1ccncc1-n1cnc(Cn2nc(-c3ccc(Cl)cc3)n(C[C@H](O)C(F)(F)F)c2=O)n1 [Example 490, 3-[3-({3-(4-Chlorophenyl)-5-oxo-4-[(2S)-3,3,3-trifluoro-2-hydroxypropyl]-4,5-dihydro-1H-1,2,4-triazol-1-yl}methyl)-1H-1,2,4-triazol-1-yl]-N-[(1R,2S)-2-fluorocyclopropyl]pyridine-4-carboxamide] | 16 | 23.8 | 380
O=C(NCCC(F)(F)F)c1ccncc1-n1cnc(Cn2nc(-c3ccc(Cl)cc3)n(C[C@H](O)C(F)(F)F)c2=O)n1 [Example 491, 3-[3-({3-(4-Chlorophenyl)-5-oxo-4-[(2S)-3,3,3-trifluoro-2-hydroxypropyl]-4,5-dihydro-1H-1,2,4-triazol-1-yl}methyl)-1H-1,2,4-triazol-1-yl]-N-(3,3,3-trifluoropropyl)pyridine-4-carboxamide] | 21 | 61.9 | 1300
O=C(NCC(F)(F)F)c1cccnc1-n1cnc(Cn2nc(-c3ccc(Cl)cc3)n(C[C@H](O)C(F)(F)F)c2=O)n1 [Example 494, 2-[3-({3-(4-chlorophenyl)-5-oxo-4-[(2S)-3,3,3-trifluoro-2-hydroxypropyl]-4,5-dihydro-1H-1,2,4-triazol-1-yl}methyl)-1H-1,2,4-triazol-1-yl]-N-(2,2,2-trifluoroethyl)pyridine-3-carboxamide] | 24.5 | 5.3 | 130

More lines, in order of falling IC50 (human V1a receptor), values ahead:

IC50 (human V1a receptor) [nM] | ratio IC50 hV2/hV1a (human V1a receptor) | IC50 (human V2 receptor) [nM] | Structure (SMILES)
1400 | 22.9 | 32000 | O=C(c1ncccc1-n1cnc(Cn2nc(-c3ccc(Cl)cc3)n(C[C@@H](O)C(F)(F)F)c2=O)n1)N1CCS(=O)(=O)CC1 [Example 479, 5-(4-Chlorophenyl)-2-[(1-{2-[(1,1-dioxidothiomorpholin-4-yl)carbonyl]pyridin-3-yl}-1H-1,2,4-triazol-3-yl)methyl]-4-[(2R)-3,3,3-trifluoro-2-hydroxypropyl]-2,4-dihydro-3H-1,2,4-triazol-3-one]
460 | 23.9 | 11000 | O=C(c1ncccc1-n1cnc(Cn2nc(-c3ccc(Cl)cc3)n(C[C@@H](O)C(F)(F)F)c2=O)n1)N1CCC[C@H]1C(F)(F)F [Example 477, 5-(4-Chlorophenyl)-4-[(2R)-3,3,3-trifluoro-2-hydroxypropyl]-2-{[1-(2-{[(2S)-2-(trifluoromethyl)pyrrolidin-1-yl]carbonyl}pyridin-3-yl)-1H-1,2,4-triazol-3-yl]methyl}-2,4-dihydro-3H-1,2,4-triazol-3-one]
90 | 733.3 | 66000 | CC1(C)COCCN1C(=O)c1ncccc1-n1cnc(Cn2nc(-c3ccc(Cl)cc3)n(C[C@@H](O)C(F)(F)F)c2=O)n1 [Example 475, 5-(4-Chlorophenyl)-2-[(1-{2-[(3,3-dimethylmorpholin-4-yl)carbonyl]pyridin-3-yl}-1H-1,2,4-triazol-3-yl)methyl]-4-[(2R)-3,3,3-trifluoro-2-hydroxypropyl]-2,4-dihydro-3H-1,2,4-triazol-3-one]
24 | 937.5 | 22500 | CC1(C)COCCN1C(=O)c1ncccc1-n1cnc(Cn2nc(-c3ccc(Cl)cc3)n(C[C@H](O)C(F)(F)F)c2=O)n1 [Example 474, 5-(4-Chlorophenyl)-2-[(1-{2-[(3,3-dimethylmorpholin-4-yl)carbonyl]pyridin-3-yl}-1H-1,2,4-triazol-3-yl)methyl]-4-[(2S)-3,3,3-trifluoro-2-hydroxypropyl]-2,4-dihydro-3H-1,2,4-triazol-3-one]
1.8 | 244.4 | 440 | CC1(NC(=O)c2ccncc2-n2cnc(Cn3nc(-c4ccc(Cl)cc4)n(C[C@H](O)C(F)(F)F)c3=O)n2)CC1 [Example 492, 3-[3-({3-(4-Chlorophenyl)-5-oxo-4-[(2S)-3,3,3-trifluoro-2-hydroxypropyl]-4,5-dihydro-1H-1,2,4-triazol-1-yl}methyl)-1H-1,2,4-triazol-1-yl]-N-(1-methylcyclopropyl)pyridine-4-carboxamide]
